Measured values taken from patent publication US12350256B2, “Histidine and/or histidine derivative for the treatment of inflammatory skin diseases” (Curapel (Scotland) Limited, priority 2008, dated 2025).

Test system: Adult patients with moderate to severe chronic atopic dermatitis
Experiment: Randomised, double-blind, placebo-controlled study of oral L-histidine in atopic dermatitis (SCORAD, POEM, TEWL)
Format: in vivo, human
Protocol: A randomised, double-blind, placebo-controlled study was conducted as follows: Adult (i.e. greater than 18 years of age) patients with moderate to severe chronic atopic dermatitis were recruited to the study from patients and diagnosis of atopic dermatitis confirmed using the UK Working Party's Diagnostic criteria (see Williams et al, Br. J. Dermatol. 1994; 131:383-96). Exclusion criteria were: patients aged less than 18 years, pregnancy or lactation, liver disease, exposure to natural or artificial ultra-violet radiation, immunosuppression due to disease or medication and Chinese herbal medicine in the 3 months preceding the study. Patients were asked to cease potent topical steroid use during the study. Disease severity was quantified by a research nurse using the well established SCORAD system (see Schmitt et al, European Dermato-Epidemiology Network, J. Allergy Clin. Immunol., 2007; 120:1389-98) and self assessed by the patients using POEM (Patient-Oriented Eczema Measure; see […] et al, J. Arch. Dermatol. 2004; 140-1513-9). Skin barrier function was assessed using a Vapometer® which quantifies Trans Epidermal Water Loss (TEWL; see Fluhr et al, Exp. Dermatol., 2006; 15:483-92). Atopic dermatitis patients were randomised into each of 2 groups and after a 'washout' period of 2 weeks and received either 4.0 g of powder L-histidine or 4.0 g of placebo (the naturally occurring food sweetener, erythritol) powder daily for 4 weeks. The patients were instructed to dissolve either the L-histidine or placebo powder in fruit juice. Neither the patient nor the clinical staff was aware of the identity of treatments administered.

[1] = 4.0 g daily oral for 4 weeks, n=4

N[C@@H](Cc1c[nH]cn1)C(=O)O [L-Histidine, 2-amino-3-(3H-imidazol-4-yl)propanoic acid]
POEM % change after 4 wks [1]: −25%
SCORAD % change after 4 wks [1]: −22%
SCORAD after 4 wks [1]: 25
TEWL % change after 4 wks [1]: −50%
reduction of clinician-scored disease activity (SCORAD) (4 weeks of 4.0 g daily): 22%
reduction of patient-scored disease activity (4 weeks of 4.0 g daily): 25%
reduction of transepidermal water loss (TEWL) (4 weeks of 4.0 g daily): 50%
TEWL after 4 wks (Vapometer, 4.0 g daily oral for 4 weeks, n=4): 8
SCORAD before (baseline before treatment, 4.0 g daily oral group, n=4): 37
TEWL before (baseline before treatment, Vapometer, 4.0 g daily oral group, n=4): 16
POEM before (baseline before treatment, patient self-assessed, 4.0 g daily oral group, n=4): 20
POEM after 4 wks (patient self-assessed, 4.0 g daily oral for 4 weeks, n=4): 15
